Key:
WT SRE RNA = assay: In vitro Chem-CLIP, WT SRE RNA; format: binding
Protocol: (§1) In Vitro Chemical Cross-linking and Isolation by Pull Down (Chem-CLIP) and Competitive Chem-CLIP (C-Chem-CLIP). Growth medium [Dulbecco's modified eagle medium (DMEM; corning, 10-013-CM) with 1× Glutagro (corning)] and 10% (v/v) fetal bovine serum (FBS; Sigma, 12003C) was inactivated by heating at 95° C. for 15 min and slowly cooling to room temperature. Approximately 10,000 counts of 32P 5′-end labeled tau WT, DDPAC, WT+I17T, or DDPAC+I17T RNA were folded in 10 μL growth medium by heating at 65° C. for 5 min and slowly cooling to room temperature. Chem-CLIP probe 3 or negative control probe 4 was then added into the folded RNA in a total volume of 20 μL, and the mixtures were incubated at 37° C. for 1 h. For C-Chem-CLIP, dilutions of competing compound 2 were incubated with RNA for 30 min before adding 3. […]
(§2) The Chem-CLIP probe 3 or control probe 4 was then clicked to disulfide biotin azide (2 μL of 10 mM solution prepared in DMSO solution per sample; Click Chemistry Tools, catalog no. 1168-10). […] The radioactive signal from bound RNAs (on the beads) and unbound RNAs (in the wash buffer) was measured by using a Beckman Coulter LS6500 Liquid Scintillation Counter as Rbound and Runbound. Enrichment was calculated as the percentage of radiolabeled RNA captured by beads calculated as Rbound/(Rbound+Runbound).

DDPAC SRE RNA = assay: In vitro Chem-CLIP, DDPAC SRE RNA; format: binding
Protocol: as §1, §2

WT I17T mutant RNA = assay: In vitro Chem-CLIP, WT I17T RNA; format: binding; settings: 50 μM
Protocol: as §1, §2

DDPAC I17T mutant RNA = assay: In vitro Chem-CLIP, DDPAC I17T RNA; format: binding; settings: 50 μM
Protocol: as §1, §2

[1] = test system: WT MAPT mini-gene pre-mRNA; assay: Chem-CLIP / C-Chem-CLIP in HeLa cells transfected with WT mini-gene; format: cell-based; settings: 3 at 1.5 μM, HeLa WT mini-gene
Protocol: (§3) Measuring Cellular Occupancy by Chem-CLIP and C-Chem-CLIP. LAN5 cells were grown to ~80% confluency in 100 mm diameter dishes. HeLa cells were transfected as described in the Luciferase Reporter Assay to Study Exon 10 Alternative Splicing except they were re-plated in 100 mm diameter dishes and grown to ~80% confluency (~1 day). The cells were then treated with 1.5 μM of 3 or 4 for 12 h. For C-Chem-CLIP, dilutions of competing compounds 1 or 2 were pre-incubated with cells for 12 h prior to adding 3. After addition of 3, the cells were incubated for an additional 12 h. After the treatment period, whether for Chem-CLIP or C-Chem-CLIP studies, the cells were washed with 10 mL of 1×DPBS. Ice-cold 1×DPBS (10 mL) was then added to the plate followed by irradiation with 365 nm light in a UV Stratalinker 2400 (Stratagene). Cells were scraped with a cell scraper, transferred to a 15 mL conical vial, and collected by centrifugation. Total RNA was extracted using TRIzol LS Reagent (Invitrogen) per the manufacturer's protocol. […]
(§4) RT-qPCR was performed on RNA samples before and after pull-down as described in Real-Time Quantitative PCR to enable calculation of fold enrichment in the pulled down samples. Relative fold enrichment of tau pre-mRNA was measured using Equation 3: […]

[2] = test system: DDPAC MAPT mini-gene pre-mRNA; assay: Chem-CLIP / C-Chem-CLIP in HeLa cells transfected with DDPAC mini-gene; format: cell-based; settings: 3 at 1.5 μM, HeLa DDPAC mini-gene
Protocol: as §3, §4

[3] = test system: WT I17T MAPT mini-gene pre-mRNA; assay: Chem-CLIP in HeLa cells transfected with WT I17T mini-gene; format: cell-based; settings: 1.5 μM
Protocol: as §3, §4

[4] = test system: DDPAC I17T MAPT mini-gene pre-mRNA; assay: Chem-CLIP in HeLa cells transfected with DDPAC I17T mini-gene; format: cell-based; settings: 1.5 μM
Protocol: as §3, §4

[5] = test system: endogenous MAPT pre-mRNA in LAN5 cells; assay: Chem-CLIP / C-Chem-CLIP in LAN5 cells; format: cell-based; settings: 3 at 1.5 μM
Protocol: as §3, §4

[6] = test system: MAPT pre-mRNA in LAN5 cells; assay: Chem-CLIP-Map-Seq in LAN5 cells; format: cell-based; settings: 3 at 1.5 μM
Protocol: Chem-CLIP-Map-Seq. Chem-CLIP-Map-Seq was performed as previously described.^32 Briefly, LAN5 cells were grown to ~80% confluency in 100 mm diameter dishes and treated with 1.5 μM of 3 for 12 h. Total RNA was extracted and pulled down as described in Measuring Cellular Occupancy by Chem-CLIP and C-Chem-CLIP. RT was carried out using 1 μg of RNA pulled down by 3, […] of a MAPT gene-specific primer (5′-[…] (SEQ ID NO: 7)), and SuperScript III (Invitrogen, 18080400) in a total volume of 10 μL per the manufacturer's protocol.
After digestion with RNase A and RNase H (part of the Superscript III protocol), the cDNA from the RT reaction was cleaned up using RNA Clean XP beads (Beckman Coulter) according to the manufacturer's protocol. The purified cDNA was ligated to a 3′ ssDNA adaptor (5′-Phosphate-[…]-[…]-3C spacer (SEQ ID NO: 8)) by incubating 2 μL 10× T4 RNA Ligase Buffer, 1 μL of 1 mM ATP, 10 μL 50% (w/v) PEG 8000, 5 μL cDNA, 1 μL of 20 μM ssDNA adaptor, and 1 μL of T4 RNA Ligase [New England BioLabs, Inc. (NEB)]. The ligated cDNA was purified again with RNAClean XP beads as described above.
PCR amplification was performed with the purified ligated cDNA by using Phusion polymerase (NEB) with cycling conditions of 98° C. for 30 s, 65° C. for 20 s, and 72° C. for 60 s and forward (5′-[…] (SEQ ID NO: 9)) and reverse (5′-[…] (SEQ ID NO: 10)) primers for 25 cycles. […]

[7] = in vitro Chem-CLIP, read-out: IC50 for engaging and pull-down of RNA

C#CCCC1(CCC(=O)NCCN(CCCc2cnc(N)cc2OC)CCCn2cnc3c4ccccc4n(C)c3c2=O)N=N1 [Compound 3]
maximum percent pull-down (WT SRE RNA; 10 and 50 μM): ~ 40%
IC50 (WT SRE RNA; [7]): ~1 µM
maximum percent pull-down (DDPAC SRE RNA; 10 and 50 μM): ~ 40%
IC50 (DDPAC SRE RNA; [7]): ~1 µM
percent pull-down (engagement) (WT I17T mutant RNA): 15±0.9%
percent pull-down (engagement) (DDPAC I17T mutant RNA): 9±0.7%
enrichment of MAPT reporter [1]: 3.9±0.1 fold
enrichment of MAPT reporter [2]: 3.8±0.1 fold
enrichment of mutant reporter [3]: nor was enrichment observed
enrichment of mutant reporter [4]: nor was enrichment observed
enrichment of MAPT pre-mRNA [5]: 3.6±0.2 fold
cross-linking site in MAPT RNA [6]: cross-linking occurred to the G in the 5′ CG closing base pair of the A-bulge

Reference: patent US20260308158A1, “TARGETING RNAS ASSOCIATED WITH TAUOPATHIES WITH SMALL MOLECULES” (University of Florida Research Foundation, Incorporated, priority 2023, published 2026)
